# Key:
# [1] = test system: AMP-evolved E. coli lines; assay: Cross-resistance / collateral sensitivity: relative MIC change of 38 laboratory-evolved AMP-resistant lines vs parental strain; format: cell-based, Escherichia coli; conditions: measured here
# Text: Here, we extended this dataset by measuring susceptibility changes of the same evolved lines to four additional AMPs using identical protocols to represent AMPs from all four clusters (Supplementary Fig. 15a, see also Methods). Overall, the resulting dataset of susceptibility profiles provides a comprehensive map of cross-resistance and collateral sensitivity between AMPs representing various modes of action.
# To characterize the cross-resistance of the 38 E. coli lineages we obtained relative MIC changes that are, the MIC values of the evolved lines compared to these of the parental strain, from two data sources. First, we used already measured relative MIC changes from Spohn et al. Supplementary data 4[20]. […] Second, we extended this dataset by measuring the relative MIC changes of the same evolved lines to four additional AMPs using identical protocol. […] In this way, AMPs from each cluster were represented in the dataset.
# Supplementary Figure 15. […] Relative change in MIC was determined for each evolved line by comparing its MIC to the ancestral cell line (control). […] CAP18-adaped lines were not included in the analysis because CAP18 is known as a membrane-targeting AMP in the literature. c, Cross-resistance interactions are enriched between membrane-targeting AMPs that are in the same chemical-genetic clusters (i.e. AMP pairs within C1 and within C2 clusters) (Significant difference: ** P = 0.0082 from two-sided Fisher’s exact test, n = 61 and 62 for within cluster and between clusters, respectively). […] Source data are provided as a Source Data file.
# [2] = test system: E. coli BW25113 overexpression strains (ASKA plasmids); assay: Minimum inhibitory concentration (MIC), serial broth dilution, single-gene overexpression strains vs empty-vector control; format: cell-based, Escherichia coli; conditions: for Average relative change in MIC: mlaD overexpression strain relative to control (wild-type+empty vector), 3 replicates each, from optical density values of serial dilution plates, AMP in µg ml-1; for Relative MIC: broth dilution, MS medium, 100 µM IPTG, 30 °C, 20-24 h, OD600, 3 replicates
# Method in brief: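 E. coli overexpression strains grown in MS medium with chloramphenicol, induced with 100 µM IPTG for 1 h at 30 °C, then about half-million cells inoculated into 12-step AMP dilutions (typically 1.2-fold steps). OD600 read after 20–24 h at 30 °C with shaking; triplicate strains compared with empty-vector control.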
# [3] = overexpression strain gadW, MIC of overexpression strain / MIC of empty-plasmid control
# [4] = overexpression strain lptB, MIC of overexpression strain / MIC of empty-plasmid control
# [5] = overexpression strain mlaC, MIC of overexpression strain / MIC of empty-plasmid control
# [6] = overexpression strain mlaD, MIC of the overexpression strain / MIC of the control strain (wild-type carrying the empty plasmid)
# [7] = overexpression strain murA, MIC of overexpression strain / MIC of empty-plasmid control
# [8] = overexpression strain rpoH, MIC of overexpression strain / MIC of empty-plasmid control
sequence,measurement,setting,value
"GIGKFLKKAKKFGKAFVKILKK [PEX, Pexiganan, synthetic Magainin derivative; disrupts cell membrane; cluster C2]",Relative change in MIC (MIC of the AMP-adpated line / MIC of the ancestral strain),[1]; AMP-adapted line BAC5_3,1
same,Relative change in MIC (MIC of the AMP-adpated line / MIC of the ancestral strain),[1]; AMP-adapted line BAC5_5,1
same,Relative change in MIC (MIC of the AMP-adpated line / MIC of the ancestral strain),[1]; AMP-adapted line BAC5_7,1.1
same,Relative change in MIC (MIC of the AMP-adpated line / MIC of the ancestral strain),[1]; AMP-adapted line BAC5_10,1.1
same,Relative change in MIC (MIC of the AMP-adpated line / MIC of the ancestral strain),[1]; AMP-adapted line CAP18_2,3.036
same,Relative change in MIC (MIC of the AMP-adpated line / MIC of the ancestral strain),[1]; AMP-adapted line CAP18_5,>3.6
same,Relative change in MIC (MIC of the AMP-adpated line / MIC of the ancestral strain),[1]; AMP-adapted line CAP18_6,1.964
same,Relative change in MIC (MIC of the AMP-adpated line / MIC of the ancestral strain),[1]; AMP-adapted line CAP18_8,2.986
same,Relative change in MIC (MIC of the AMP-adpated line / MIC of the ancestral strain),[1]; AMP-adapted line CAP18_10,2.488
same,Relative change in MIC (MIC of the AMP-adpated line / MIC of the ancestral strain),[1]; AMP-adapted line HBD3_3,3.648
same,Relative change in MIC (MIC of the AMP-adpated line / MIC of the ancestral strain),[1]; AMP-adapted line HBD3_6,2.089
same,Relative change in MIC (MIC of the AMP-adpated line / MIC of the ancestral strain),[1]; AMP-adapted line HBD3_8,3.578
same,Relative change in MIC (MIC of the AMP-adpated line / MIC of the ancestral strain),[1]; AMP-adapted line HBD3_10,2.72
same,Relative change in MIC (MIC of the AMP-adpated line / MIC of the ancestral strain),[1]; AMP-adapted line LL37_1,1.584
same,Relative change in MIC (MIC of the AMP-adpated line / MIC of the ancestral strain),[1]; AMP-adapted line LL37_3,1.32
same,Relative change in MIC (MIC of the AMP-adpated line / MIC of the ancestral strain),[1]; AMP-adapted line LL37_6,1.22
same,Relative change in MIC (MIC of the AMP-adpated line / MIC of the ancestral strain),[1]; AMP-adapted line LL37_7,2.986
same,Relative change in MIC (MIC of the AMP-adpated line / MIC of the ancestral strain),[1]; AMP-adapted line LL37_10,2.093
same,Relative change in MIC (MIC of the AMP-adpated line / MIC of the ancestral strain),[1]; AMP-adapted line PR39_1,1.464
same,Relative change in MIC (MIC of the AMP-adpated line / MIC of the ancestral strain),[1]; AMP-adapted line PR39_2,1.1
same,Relative change in MIC (MIC of the AMP-adpated line / MIC of the ancestral strain),[1]; AMP-adapted line PR39_5,1.1
same,Relative change in MIC (MIC of the AMP-adpated line / MIC of the ancestral strain),[1]; AMP-adapted line PR39_7,1.1
same,Relative change in MIC (MIC of the AMP-adpated line / MIC of the ancestral strain),[1]; AMP-adapted line PR39_10,1
same,Relative change in MIC (MIC of the AMP-adpated line / MIC of the ancestral strain),[1]; AMP-adapted line PROA_2,1.1
same,Relative change in MIC (MIC of the AMP-adpated line / MIC of the ancestral strain),[1]; AMP-adapted line PROA_3,1.1
same,Relative change in MIC (MIC of the AMP-adpated line / MIC of the ancestral strain),[1]; AMP-adapted line PROA_7,0.915
same,Relative change in MIC (MIC of the AMP-adpated line / MIC of the ancestral strain),[1]; AMP-adapted line PROA_8,1.2
same,Relative change in MIC (MIC of the AMP-adpated line / MIC of the ancestral strain),[1]; AMP-adapted line PROA_9,1
same,Relative change in MIC (MIC of the AMP-adpated line / MIC of the ancestral strain),[1]; AMP-adapted line PXB_2,1.32
same,Relative change in MIC (MIC of the AMP-adpated line / MIC of the ancestral strain),[1]; AMP-adapted line PXB_5,1.844
same,Relative change in MIC (MIC of the AMP-adpated line / MIC of the ancestral strain),[1]; AMP-adapted line PXB_6,1.6368
same,Relative change in MIC (MIC of the AMP-adpated line / MIC of the ancestral strain),[1]; AMP-adapted line PXB_8,1.844
same,Relative change in MIC (MIC of the AMP-adpated line / MIC of the ancestral strain),[1]; AMP-adapted line PXB_10,>3.6
same,Average relative change in MIC,[2],1.71
same,Relative MIC,[2]; [3],0.7
same,Relative MIC,"[2]; overexpression strain hyfA, MIC of overexpression strain / MIC of empty-plasmid control",0.7
same,Relative MIC,[2]; [4],1.3
same,Relative MIC,[2]; [5],1.85
same,Relative MIC,[2]; [6],1.85
same,Relative MIC,[2]; [7],1.44
same,Relative MIC,"[2]; overexpression strain mzrA, MIC of overexpression strain / MIC of empty-plasmid control",1
same,Relative MIC,"[2]; overexpression strain narY, MIC of overexpression strain / MIC of empty-plasmid control",0.8
same,Relative MIC,[2]; [8],1.44
"RFRPPIRRPPIRPPFYPPFRPPIRPPIFPPIRPPFRPPLGPFP [BAC5, Bactenecin 5, antimicrobial peptide from bovine neutrophils; cluster C4]",Relative change in MIC (MIC of the AMP-adpated line / MIC of the ancestral strain),[1]; AMP-adapted line CAP18_2,1
same,Relative change in MIC (MIC of the AMP-adpated line / MIC of the ancestral strain),[1]; AMP-adapted line CAP18_5,0.915
same,Relative change in MIC (MIC of the AMP-adpated line / MIC of the ancestral strain),[1]; AMP-adapted line CAP18_6,0.915
same,Relative change in MIC (MIC of the AMP-adpated line / MIC of the ancestral strain),[1]; AMP-adapted line CAP18_8,1
same,Relative change in MIC (MIC of the AMP-adpated line / MIC of the ancestral strain),[1]; AMP-adapted line CAP18_10,0.915
same,Relative change in MIC (MIC of the AMP-adpated line / MIC of the ancestral strain),[1]; AMP-adapted line HBD3_3,1
same,Relative change in MIC (MIC of the AMP-adpated line / MIC of the ancestral strain),[1]; AMP-adapted line HBD3_6,0.9167
same,Relative change in MIC (MIC of the AMP-adpated line / MIC of the ancestral strain),[1]; AMP-adapted line HBD3_8,1
same,Relative change in MIC (MIC of the AMP-adpated line / MIC of the ancestral strain),[1]; AMP-adapted line HBD3_10,1
same,Relative change in MIC (MIC of the AMP-adpated line / MIC of the ancestral strain),[1]; AMP-adapted line LL37_1,0.915
same,Relative change in MIC (MIC of the AMP-adpated line / MIC of the ancestral strain),[1]; AMP-adapted line LL37_3,1
same,Relative change in MIC (MIC of the AMP-adpated line / MIC of the ancestral strain),[1]; AMP-adapted line LL37_6,0.915
same,Relative change in MIC (MIC of the AMP-adpated line / MIC of the ancestral strain),[1]; AMP-adapted line LL37_7,1
same,Relative change in MIC (MIC of the AMP-adpated line / MIC of the ancestral strain),[1]; AMP-adapted line LL37_10,0.915
same,Relative change in MIC (MIC of the AMP-adpated line / MIC of the ancestral strain),[1]; AMP-adapted line PEX_1,1.1
same,Relative change in MIC (MIC of the AMP-adpated line / MIC of the ancestral strain),[1]; AMP-adapted line PEX_4,1.1
same,Relative change in MIC (MIC of the AMP-adpated line / MIC of the ancestral strain),[1]; AMP-adapted line PEX_5,1
same,Relative change in MIC (MIC of the AMP-adpated line / MIC of the ancestral strain),[1]; AMP-adapted line PEX_6,1.1
same,Relative change in MIC (MIC of the AMP-adpated line / MIC of the ancestral strain),[1]; AMP-adapted line PEX_7,1
same,Relative change in MIC (MIC of the AMP-adpated line / MIC of the ancestral strain),[1]; AMP-adapted line PR39_1,>4.30
same,Relative change in MIC (MIC of the AMP-adpated line / MIC of the ancestral strain),[1]; AMP-adapted line PR39_2,2.0736
same,Relative change in MIC (MIC of the AMP-adpated line / MIC of the ancestral strain),[1]; AMP-adapted line PR39_5,4.3
same,Relative change in MIC (MIC of the AMP-adpated line / MIC of the ancestral strain),[1]; AMP-adapted line PR39_7,1.9
same,Relative change in MIC (MIC of the AMP-adpated line / MIC of the ancestral strain),[1]; AMP-adapted line PR39_10,2.986
same,Relative change in MIC (MIC of the AMP-adpated line / MIC of the ancestral strain),[1]; AMP-adapted line PROA_2,1.2
same,Relative change in MIC (MIC of the AMP-adpated line / MIC of the ancestral strain),[1]; AMP-adapted line PROA_3,1
same,Relative change in MIC (MIC of the AMP-adpated line / MIC of the ancestral strain),[1]; AMP-adapted line PROA_7,1.1
same,Relative change in MIC (MIC of the AMP-adpated line / MIC of the ancestral strain),[1]; AMP-adapted line PROA_8,1.1
same,Relative change in MIC (MIC of the AMP-adpated line / MIC of the ancestral strain),[1]; AMP-adapted line PROA_9,1.1
same,Relative change in MIC (MIC of the AMP-adpated line / MIC of the ancestral strain),[1]; AMP-adapted line PXB_2,1.32
same,Relative change in MIC (MIC of the AMP-adpated line / MIC of the ancestral strain),[1]; AMP-adapted line PXB_5,1.1
same,Relative change in MIC (MIC of the AMP-adpated line / MIC of the ancestral strain),[1]; AMP-adapted line PXB_6,1
same,Relative change in MIC (MIC of the AMP-adpated line / MIC of the ancestral strain),[1]; AMP-adapted line PXB_8,1
same,Relative change in MIC (MIC of the AMP-adpated line / MIC of the ancestral strain),[1]; AMP-adapted line PXB_10,0.915
same,Average relative change in MIC,[2],0.74
same,Relative MIC,[2]; [3],1.3
same,Relative MIC,[2]; [4],0.67
same,Relative MIC,"[2]; overexpression strain mhpA, MIC of overexpression strain / MIC of empty-plasmid control",0.79
same,Relative MIC,[2]; [5],1
same,Relative MIC,[2]; [6],0.74
same,Relative MIC,[2]; [7],0.8
same,Relative MIC,[2]; [8],0.8
same,Relative MIC,"[2]; overexpression strain yhbJ, MIC of overexpression strain / MIC of empty-plasmid control",0.8
same,Relative MIC,"[2]; overexpression strain yiaJ, MIC of overexpression strain / MIC of empty-plasmid control",0.7

# Reference: article PMC6915728 (Nature Communications, 2019)
